Results taken from the supplement of paper PMC10627819.

Legend:
Assay in all cases: fitness (endpoint OD595 vs no drug) (fraction); higher = more growth
S. aureus Newman = system: S. aureus Newman
Outline: (§1)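 With the first reading as background, OD595 was measured every 30 min for 14 h in 384-well plates kept at 37 °C and inoculated at OD595 0.01. TSB, LB Lennox or CY was the medium. Fitness is the optical density at the transition into stationary phase divided by the robust mean of no-drug control wells, with a cap of 1.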

S. pneumoniae D39V = system: S. pneumoniae D39V
Outline: as §1

S. aureus DSM 20231 = system: S. aureus DSM 20231
Outline: as §1
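Also: OD595 on entry to stationary phase over no-drug wells; at most 1.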

CO[C@@]12[C@H](COC(N)=O)C3=C(C(=O)C(C)=C(N)C3=O)N1C[C@@H]1N[C@@H]12 [Mitomycin C] + C/C(=C\C(=O)OCCCCCCCCC(=O)O)C[C@@H]1OC[C@H](C[C@@H]2O[C@H]2[C@@H](C)[C@H](C)O)[C@@H](O)[C@H]1O [Pseudomonic acid]
fitness, S. aureus Newman, one replicate
Conditions | first compound 0.0156 µg/mL | first compound 0.0312 µg/mL | first compound 0.0625 µg/mL
partner 0.0313 µg/mL | 0.0474 | 0.0196 | 0.0148
partner 0.0625 µg/mL | 0.0185 | 0.0244 | 0.0093
partner 0.125 µg/mL | 0.0351 | 0.0217 | 0.029

fitness, S. pneumoniae D39V
Conditions | first compound 0.001075 µg/mL | first compound 0.002 µg/mL | first compound 0.00215 µg/mL | first compound 0.004 µg/mL | first compound 0.0043 µg/mL | first compound 0.008 µg/mL
partner 0.03 µg/mL | 0.914 | 0.855 | 0.919 | 0.741 | 0.818 | 0.612
partner 0.06 µg/mL | 0.806 | 0.725 | 0.795 | 0.64 | 0.731 | 0.523
partner 0.12 µg/mL | 0.587 | 0.549 | 0.584 | 0.498 | 0.51 | 0.322

CO[C@@]12[C@H](COC(N)=O)C3=C(C(=O)C(C)=C(N)C3=O)N1C[C@@H]1N[C@@H]12 [Mitomycin C] + CN1C2=CC=CC=C2N=C3C1=CC=CC3=O [Pyocyanin]
fitness
Conditions | first compound 0.001075 µg/mL | first compound 0.00215 µg/mL | first compound 0.0043 µg/mL | first compound 0.0156 µg/mL | first compound 0.0312 µg/mL | first compound 0.0625 µg/mL
S. aureus DSM 20231, partner 1.25 µg/mL | – | – | – | 0.704 | 0.73 | 0.573
S. aureus DSM 20231, partner 2.5 µg/mL | – | – | – | 0.668 | 0.691 | 0.555
S. aureus DSM 20231, partner 5 µg/mL | – | – | – | 0.547 | 0.543 | 0.414
S. aureus Newman, partner 1.25 µg/mL | – | – | – | 0.648 | 0.614 | 0.49
S. aureus Newman, partner 2.5 µg/mL | – | – | – | 0.558 | 0.58 | 0.406
S. aureus Newman, partner 5 µg/mL | – | – | – | 0.265 | 0.239 | 0.0918
S. pneumoniae D39V, partner 0.325 µg/mL | 0.964 | 0.984 | 0.847 | – | – | –
S. pneumoniae D39V, partner 0.65 µg/mL | 0.964 | 0.975 | 0.844 | – | – | –
S. pneumoniae D39V, partner 1.3 µg/mL | 0.726 | 0.721 | 0.621 | – | – | –

fitness, S. pneumoniae D39V, one replicate
Conditions | first compound 0.002 µg/mL | first compound 0.004 µg/mL | first compound 0.008 µg/mL
partner 0.325 µg/mL | 0.853 | 0.77 | 0.642
partner 0.65 µg/mL | 0.835 | 0.802 | 0.744
